Structures can show the parent of a compound that is named as a salt.
Tested on: depressant action of tetrabenazine in mice
Assay: anti-depressant effect: antagonism of the depressant action of tetrabenazine in mice
Type: in vivo
Conditions: Mus musculus, read-out: ED50 (dose effective in 50 percent of the treated mice), anti-depressant effect
Procedure: The anti-depressant effect of some compounds of this invention was assessed by their ability to antagonize the depressant action of tetrabenazine (2-oxo-3-isobutyl-9,10-dimethoxy- 1,2,3,4,6,7 -hexahydro-11bH-benzo[a]quinolizine) in mice [Englehardt et al. J. Med. Chem. 11 (2), 325 (1968)].

Row | SMILES | ED50
1 | CN1CCC(N(C(=O)c2ccc(Cl)cc2)c2ccccc2)C1 (stereo not drawn) [Example 15, 1-methyl-3-[N-phenyl-(4-chlorobenzamido)]pyrrolidine fumarate] | 0.6 mg/kg
2 | CN1CCC(N(C(=O)c2ccccc2)c2ccccc2)C1 (stereo not drawn) [Example 29] | 1.7 mg/kg
3 | CN1CCC(N(C(=O)c2cccc(C(F)(F)F)c2)c2ccccc2)C1 (stereo not drawn) [Example 36] | 2.8 mg/kg
4 | CN1CCC(N(C(=O)c2cccc(Cl)c2)c2ccccc2)C1 (stereo not drawn) [Example 37] | 2.8 mg/kg
5 | CN1CCC(N(C(=O)c2ccc(F)cc2)c2ccccc2)C1 (stereo not drawn) [Example 38] | 4.8 mg/kg
6 | CN1CCC(N(C(=O)c2ccc(Br)cc2)c2ccccc2)C1 (stereo not drawn) [Example 40] | 15.5 mg/kg
7 | O=C(c1ccccc1)N(c1ccccc1)C1CCN(Cc2ccccc2)C1 (stereo not drawn) [Example 41] | 4.9 mg/kg
8 | O=C(c1ccccc1)N(c1ccccc1)C1CCNC1 (stereo not drawn) [Example 42] | 2.4 mg/kg
9 | CCN1CCC(N(C(=O)c2ccccc2)c2cccc(C(F)(F)F)c2)C1 (stereo not drawn) [Example 44] | 2 mg/kg
10 | CCN1CCC(N(C(=O)c2ccc(Cl)cc2)c2ccc(Cl)cc2)C1 (stereo not drawn) [Example 47] | 4.9 mg/kg
11 | CCN1CCC(N(C(=O)c2ccc(Cl)cc2)c2ccccc2)C1 (stereo not drawn) [Example 48] | 0.6 mg/kg
12 | CN(C)CCCN1c2ccccc2CCc2ccccc21 [Tofranil®, reference compound] | 1.3 mg/kg

Same assay, conditions: Mus musculus; mice; antagonism of depressant action of tetrabenazine; read-out: ED50 (dose effective in 50 percent of the treated mice), anti-depressant effect

Row | SMILES | ED50
13 | CN(C)CCC=C1c2ccccc2CCc2ccccc21 [Elavil®, reference compound] | 1.1 mg/kg

Tested on: mice
Assay: animal or person
Type: in vivo
Conditions: Mus musculus, read-out: ED50 (dose effective in 50 percent of the treated mice), analgetic effect

Row | SMILES | ED50
14 | CCC(=O)O[C@](Cc1ccccc1)(c1ccccc1)[C@H](C)CN(C)C [Darvon®, reference compound] | 11.2 mg/kg
15 | CCOC(=O)C1(c2ccccc2)CCN(C)CC1 [Demerol®, reference compound] | 6.4 mg/kg
16 | CCC(=O)N(c1ccccc1OC)C1CCN(CCOc2ccccc2)C1 (stereo not drawn) [Example 4, 1-(2-phenoxethyl)-3-[N-(2-methoxyphenyl)propionamido]pyrrolidine] | 6.8 mg/kg
17 | C=CCN1CCC(N(C(=O)CC)c2ccccc2)C1 (stereo not drawn) [Example 5] | 8 mg/kg
18 | CN1CCC(N(C(=O)c2ccc(Cl)cc2)c2ccccc2)C1 (stereo not drawn) [Example 15, 1-methyl-3-[N-phenyl-(4-chlorobenzamido)]pyrrolidine fumarate] | 5.2 mg/kg
19 | CCC(=O)N(c1ccccc1)C1CCN(CCOc2ccccc2)C1 (stereo not drawn) [Example 17, 1-(2-phenoxyethyl)-3-(N-phenylpropionamido)pyrrolidine hydrochloride] | 14.2 mg/kg
20 | CCC(=O)N(c1ccccc1)C1CCN(CCOc2ccccc2OC)C1 (stereo not drawn) [Example 18, 1-[2-(2-methoxyphenoxy)ethyl]-3-(N-phenylpropionamido)-pyrrolidine] | 3.4 mg/kg
21 | CN1CCC(N(C(=O)COc2ccc(Cl)cc2)c2ccccc2)C1 (stereo not drawn) [Example 31] | 16.5 mg/kg
